Test results reported in BindingDB's records for doi:10.1021/acs.jmedchem.8b00629 (Ludwig-Maximilians-University Munich, 2018).

Experiments:
[1] = Inhibition of mouse GAT3 expressed in HEK293 cells assessed as reduction in [3H]GABA uptake preincubated for 25 mins followed by [3H]GABA addition measured after 4 mins by liquid scintillation counting analysis
[2] = Inhibition of mouse GAT2 expressed in HEK293 cells assessed as reduction in [3H]GABA uptake preincubated for 25 mins followed by [3H]GABA addition measured after 4 mins by liquid scintillation counting analysis

Row | IC50 [1] [µM] | IC50 [2] [µM] | SMILES
1 | > 100 | > 100 | O=C(O)[C@@H]1CCCN(CCC#Cc2cccc(/N=N/c3ccccc3)c2)C1
2 | > 100 | > 100 | O=C(O)[C@@H]1CCCN(CCC#Cc2ccc(/N=N/c3ccccc3)cc2)C1
3 | > 100 | > 100 | O=C(O)[C@@H]1CCCN(CCC#Cc2cccc(/N=N/c3cccc4ccccc34)c2)C1
4 | > 100 | > 100 | O=C(O)[C@@H]1CCCN(CCC#Cc2ccc(/N=N/c3cccc4ccccc34)cc2)C1
